In PubChem BioAssay AID330 (DTP/NCI, 2004):
Several values for one entry are separate records, joined by “and”; a condition that tells them apart may be missing. Equal entries are not always repeated. Inconclusive results and toxic doses are left out.

Tested on: P388 leukemia ip, CD2F1 mice, survival T/C
Test: NCI In Vivo Anticancer Drug Screen. Data for tumor model P388 Leukemia (intraperitoneal) in CD2F1 (CDF1) mice
Conditions: endpoint: median survival time, higher = longer survival
Method in brief: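 Mice carrying the transplanted tumor received test compound or vehicle. Survival was recorded in each group, and the value is the treated-group measurement divided by that of the vehicle-treated control group.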

[1] = dose: 50.0 mg/kg/injection, schedule: Q01DX005 (ip), vehicle: saline with Tween-80
[2] = dose: 100.0 mg/kg/injection, schedule: Q01DX005 (ip), vehicle: saline with Tween-80
[3] = dose: 200.0 mg/kg/injection, schedule: Q01DX005 (ip), vehicle: saline with Tween-80
[4] = dose: 100.0 mg/kg/injection, schedule: Q04DX003 (ip), vehicle: saline
[5] = dose: 200.0 mg/kg/injection, schedule: Q04DX003 (ip), vehicle: saline
[6] = dose: 100.0 mg/kg/injection, schedule: Q04DX002 (ip), vehicle: saline with Tween-80
[7] = dose: 200.0 mg/kg/injection, schedule: Q04DX002 (ip), vehicle: saline with Tween-80
[8] = dose: 50.0 mg/kg/injection, schedule: Q01DX005 (ip), vehicle: Klucel (hydroxypropylcellulose) (HPC)
[9] = dose: 100.0 mg/kg/injection, schedule: Q01DX005 (ip), vehicle: Klucel (hydroxypropylcellulose) (HPC)
[10] = dose: 200.0 mg/kg/injection, schedule: Q01DX005 (ip), vehicle: Klucel (hydroxypropylcellulose) (HPC)
[11] = dose: 12.5 mg/kg/injection, schedule: Q04DX003 (ip), vehicle: saline with Tween-80
[12] = dose: 25.0 mg/kg/injection, schedule: Q04DX003 (ip), vehicle: saline with Tween-80
[13] = dose: 100.0 mg/kg/injection, schedule: Q01DX009 (ip), vehicle: saline with Tween-80
[14] = dose: 200.0 mg/kg/injection, schedule: Q01DX009 (ip), vehicle: saline with Tween-80
[15] = dose: 60.0 mg/kg/injection, schedule: Q01DX005 (ip), vehicle: saline with Tween-80
[16] = dose: 120.0 mg/kg/injection, schedule: Q01DX005 (ip), vehicle: saline with Tween-80
[17] = dose: 25.0 mg/kg/injection, schedule: Q01DX005 (ip), vehicle: saline with Tween-80

With `COC1C(N)C(OC2C(Oc3cccc4c(O)c5c(=O)oc6ccc(C)c7c(=O)oc(c34)c5c67)OC(C)C(O)C2(C)O)OC(C)C1O` (centres undefined) the T/C (dose: 0.63 mg/kg/injection, schedule: Q01DX009 (ip), vehicle: other) was 183 % of control, the T/C (dose: 1.25 mg/kg/injection, schedule: Q01DX009 (ip), vehicle: other) was 198 % of control and the T/C (dose: 2.5 mg/kg/injection, schedule: Q01DX009 (ip), vehicle: other) was 202 % of control. The T/C (dose: 5.0 mg/kg/injection, schedule: Q01DX009 (ip), vehicle: other) was 276 % of control.
In the case of `COC(=O)/C(=C\C[C@@H]1CCCC[C@H]1O)CC[Se]c1ccccc1`, the T/C (dose: 50.0 mg/kg/injection, schedule: Q01DX009 (ip), vehicle: distilled water + Tween-80 + alcohol) is reported as 108 % of control, the T/C (dose: 100.0 mg/kg/injection, schedule: Q01DX009 (ip), vehicle: distilled water + Tween-80 + alcohol) is reported as 103 % of control and the T/C (dose: 200.0 mg/kg/injection, schedule: Q01DX009 (ip), vehicle: distilled water + Tween-80 + alcohol) is reported as 98 % of control.
For `O=C1C(CCl)(CCl)CCC12CN=C(Cl)C2` (centres undefined), the T/C [1] was 100 % of control, the T/C [2] was 100 % of control and the T/C [3] was 106 % of control.
For `CC(C)C[N+]1(Cc2ccc(Cl)cc2Cl)CCOCC1`, the T/C [4] was 101 % of control and the T/C [5] was 93 % of control.
`CNC(=S)NNc1nc(N(C)C)nc(N(C)C)n1` was tested, and the T/C [6] was 98 % of control, the T/C [7] was 92 % of control and the T/C (dose: 400.0 mg/kg/injection, schedule: Q04DX002 (ip), vehicle: saline with Tween-80) was 93 % of control.
For `Fc1ccc(Nc2c3ccccc3nc3c2cnn3-c2ccccc2)cc1`, the T/C [8] was 91 % of control, the T/C (dose: 60.0 mg/kg/injection, schedule: Q01DX005 (ip), vehicle: Klucel (hydroxypropylcellulose) (HPC)) was 86 % of control and the T/C [9] was 87 % of control. The T/C [10] was 87 % of control and the T/C (dose: 240.0 mg/kg/injection, schedule: Q01DX005 (ip), vehicle: Klucel (hydroxypropylcellulose) (HPC)) was 90 % of control.
For `COC(=O)CCc1ccc(NP(=O)(N2CC2)N2CC2)cc1`, the T/C [11] was 100 % of control, the T/C [12] was 115 % of control and the T/C [13] was 150 % of control. For the same compound, the T/C (dose: 132.0 mg/kg/injection, schedule: Q04DX003 (ip), vehicle: saline with Tween-80) was 150 % of control, the T/C [14] was 90 % of control and the T/C (dose: 200.0 mg/kg/injection, schedule: Q04DX003 (ip), vehicle: saline with Tween-80) was 156 % of control. For the same compound, the T/C (dose: 300.0 mg/kg/injection, schedule: Q04DX003 (ip), vehicle: saline with Tween-80) was 90 % of control.
With `Cc1ccc(OC/C=N\N=C(N)N)cc1C` the T/C [15] was 101 % of control and the T/C [16] was 93 % of control.
With `OC1(c2ccccc2)c2ccccc2NC2=NCCN21` (centres undefined) the T/C [17] was 105 % of control, the T/C [1] was 96 % of control and the T/C [2] was 104 % of control. The T/C [3] was 97 % of control.
In the case of `CC(SCCCCCCCCCCSC(C)C(=O)O)C(=O)O` (centres undefined), the T/C [8] is reported as 93 % of control, the T/C [9] is reported as 98 % of control and the T/C [10] is reported as 95 % of control.
In the case of `CCOC(=O)c1cnc2c(ccc3cc(OC)ccc32)c1NCCCN(CC)CC`, the T/C (dose: 25.0 mg/kg/injection, schedule: Q01DX005 (ip), vehicle: Klucel (hydroxypropylcellulose) (HPC)) is reported as 97 % of control, the T/C [8] is reported as 97 % of control and the T/C [9] is reported as 100 % of control. The T/C [10] was 97 % of control.
In the case of `OC(c1ccccc1)(C(F)(F)F)C(O)(c1ccccc1)C(F)(F)F` (centres undefined), the T/C (dose: 50.0 mg/kg/injection, schedule: Q01DX009 (ip), vehicle: saline with Tween-80) is reported as 99 % of control, the T/C [13] is reported as 104 % of control and the T/C [14] is reported as 87 % of control.
`CO/N=C/c1ccc([N+](=O)[O-])s1` was tested, and the T/C (dose: 12.0 mg/kg/injection, schedule: Q01DX001 (ip), vehicle: other) was 90 % of control, the T/C (dose: 25.0 mg/kg/injection, schedule: Q01DX001 (ip), vehicle: other) was 104 % of control and the T/C (dose: 50.0 mg/kg/injection, schedule: Q01DX001 (ip), vehicle: other) was 100 % of control.
`C[C@@]12C[C@@H](Br)[C@H](Br)C[C@]1(C)O2` was tested, and the T/C [1] was 104 % of control, the T/C [2] was 106 % of control and the T/C [3] was 101 % of control.
`CC(C)(C)c1cc(CCCCCCCC2(CCCCCCCc3cc(C(C)(C)C)cc(C(C)(C)C)c3)OC(COCCOCCOCCCC#N)C(COCCOCCOCCCC#N)O2)cc(C(C)(C)C)c1` (centres undefined) was tested, and the T/C [17] was 97 % of control, the T/C [1] was 95 % of control and the T/C [2] was 113 % of control. The T/C [3] was 100 % of control.
`Cc1ccc(S(=O)(=O)CC2(Br)Cc3ccccc3C2=O)cc1` (centres undefined) was tested, and the T/C [4] was 103 % of control, the T/C [5] was 100 % of control and the T/C (dose: 400.0 mg/kg/injection, schedule: Q04DX003 (ip), vehicle: saline) was 100 % of control.
`CS(=O)(=O)OCC#CCOS(C)(=O)=O` was tested, and the T/C (dose: 1.56 mg/kg/injection, schedule: Q01DX009 (ip), vehicle: Klucel (hydroxypropylcellulose) (HPC)) was 109 % of control and the T/C (dose: 3.12 mg/kg/injection, schedule: Q01DX009 (ip), vehicle: Klucel (hydroxypropylcellulose) (HPC)) was 120 % of control.
In the case of `COc1cccc2c1C(=O)c1c(O)c3c(c(O)c1C2=O)CC(O)(C(N)=O)CC3OC1CC(N)C(O)C(C)O1` (centres undefined), the T/C (dose: 0.39 mg/kg/injection, schedule: Q01DX009 (ip), vehicle: water) is reported as 101 % of control and the T/C (dose: 6.25 mg/kg/injection, schedule: Q01DX009 (ip), vehicle: water) is reported as 151 % of control.
For `Nc1nc([Se])c2ncn(C3OC(CO)C(O)C3O)c2n1` (centres undefined), the T/C (dose: 4.0 mg/kg/injection, schedule: Q01DX009 (ip), vehicle: saline) was 150 % of control and 157 % of control, the T/C (dose: 6.25 mg/kg/injection, schedule: Q01DX009 (ip), vehicle: saline) was 159 % of control and the T/C (dose: 8.0 mg/kg/injection, schedule: Q01DX009 (ip), vehicle: saline) was 164 % of control and 179 % of control. For the same compound, the T/C (dose: 8.0 mg/kg/injection, schedule: Q01DX009 (ip), vehicle: water) was 157 % of control, the T/C (dose: 12.5 mg/kg/injection, schedule: Q01DX009 (ip), vehicle: saline) was 183 % of control and the T/C (dose: 16.0 mg/kg/injection, schedule: Q01DX009 (ip), vehicle: saline) was 157 % of control and 198 % of control and 202 % of control. For the same compound, the T/C (dose: 16.0 mg/kg/injection, schedule: Q01DX009 (ip), vehicle: water) was 160 % of control and 161 % of control, the T/C (dose: 25.0 mg/kg/injection, schedule: Q01DX009 (ip), vehicle: saline) was 186 % of control and the T/C (dose: 32.0 mg/kg/injection, schedule: Q01DX009 (ip), vehicle: saline) was 121 % of control and 247 % of control and 98 % of control. For the same compound, the T/C (dose: 32.0 mg/kg/injection, schedule: Q01DX009 (ip), vehicle: water) was 190 % of control and 191 % of control and the T/C (dose: 50.0 mg/kg/injection, schedule: Q01DX009 (ip), vehicle: saline) was 96 % of control.
In the case of `O=S(=O)(F)c1ccc(N=C=S)cc1`, the T/C (dose: 6.25 mg/kg/injection, schedule: Q04DX003 (ip), vehicle: saline with Tween-80) is reported as 100 % of control, the T/C [11] is reported as 104 % of control and the T/C [12] is reported as 109 % of control.
For `O=c1c(-c2cccc(O)c2O)coc2cc(OC3OC(CO)C(O)C(O)C3O)ccc12` (centres undefined), the T/C [15] was 100 % of control, the T/C [16] was 100 % of control and the T/C (dose: 240.0 mg/kg/injection, schedule: Q01DX005 (ip), vehicle: saline with Tween-80) was 97 % of control.
In the case of `Cc1nnc(C)s1`, the T/C (dose: 50.0 mg/kg/injection, schedule: Q01DX009 (ip), vehicle: Klucel (hydroxypropylcellulose) (HPC)) is reported as 102 % of control and 106 % of control and 98 % of control, the T/C (dose: 100.0 mg/kg/injection, schedule: Q01DX009 (ip), vehicle: Klucel (hydroxypropylcellulose) (HPC)) is reported as 114 % of control and 96 % of control and 97 % of control and the T/C (dose: 200.0 mg/kg/injection, schedule: Q01DX009 (ip), vehicle: Klucel (hydroxypropylcellulose) (HPC)) is reported as 101 % of control and 106 % of control. The T/C (dose: 600.0 mg/kg/injection, schedule: Q01DX009 (ip), vehicle: Klucel (hydroxypropylcellulose) (HPC)) was 106 % of control.
In the case of `CCC12CCCN3CCc4c(n(c5ccc(Br)cc45)C(=O)CC1)C32` (centres undefined), the T/C (dose: 12.5 mg/kg/injection, schedule: Q01DX005 (ip), vehicle: saline with Tween-80) is reported as 99 % of control, the T/C [17] is reported as 90 % of control and the T/C [1] is reported as 88 % of control and 91 % of control.
`O=C1CSC(c2c(O)ccc3ccccc23)N1CCN1C(=O)CSC1c1c(O)ccc2ccccc12` (centres undefined) was tested, and the T/C (dose: 100.0 mg/kg/injection, schedule: Q01DX001 (ip), vehicle: saline with Tween-80) was 97 % of control, the T/C (dose: 200.0 mg/kg/injection, schedule: Q01DX001 (ip), vehicle: saline with Tween-80) was 92 % of control and the T/C (dose: 400.0 mg/kg/injection, schedule: Q01DX001 (ip), vehicle: saline with Tween-80) was 90 % of control.
`CC1=C(C)C(=O)C(C(C)(C)CC(=O)Sc2ncnc3nc[nH]c23)=C(C)C1=O` was tested, and the T/C [6] was 97 % of control and the T/C [7] was 99 % of control.
